Experimental data as given in patent US20260092085A1, “SYNTHETIC TRIPLEX PEPTIDE NUCLEIC ACID-BASED INHIBITORS FOR CANCER THERAPY” (University of Connecticut, priority 2022, published 2026).

Test system: miR-155
Test: Gel shift binding assay (PAGE, SYBR Gold)
Procedure: (1D) Dose-dependent gel shift binding assay of target miR-155 ([…]) with PNA-155 and γtcPNA-155 at indicated concentrations. The samples were prepared in the physiological buffer (2 mM MgCl2, 150 mM KCl, 10 mM NaPi) and incubated for 24 hours at physiological temperature (37° C.) followed by PAGE separation and visualization of bands by SYBr® Gold staining. […] (iii) γtcPNA-155 binding with the target miR-155 by Watson Crick and Hoogsteen base pairing. (iv) γtcPNA-155 binding with the miR-155 by Watson-Crick base pairing. (v) Clamp segment of γtcPNA-155 binding with the target miR-155 by Hoogsteen base pairing.
Gel shift assay: Different concentration of PNA-155 or gamma tcPNA-155 were made in physiological buffer (2 mM MgCl2, 150 mM KCl, 10 mM NaPi) and incubated overnight at 37° C. with 1 μM DNA-155 target. The samples were run through 8% Polyacrylamide gel electrophoresis (PAGE) gel in IX TBE buffer at 120 volts for 35 mins. The gel was stained with SyBr Gold for two mins and visualized using Gel Doc™ EZ Imager (Bio-rad). […]
Next, we evaluated the binding affinity of γtcPNA-155 and PNA-155 with the miR-155 target by polyacrylamide gel electrophoresis (PAGE) based protocols (FIG. 1D). We incubated PNA-155 and γtcPNA-155 with miR-155 at indicated concentrations in physiological buffer and temperature and assessed the binding by PAGE followed by SYBR gold staining. […]

Substance: γtcPNA-155: serine gamma tail-clamp anti-miR-155 PNA, RR-TJJJJ-OOO-ACCCCTATCACGATTAGCATTAA-RR, SEQ ID NO: 3 (all peptide nucleic acid (PNA); serine gamma PNA, tail-clamp TJJJJ via linkers, Arg-Arg at both ends)
- binding affinity with miR-155 target (comparison): stronger binding affinity compared to regular PNA-155
